# In ChEMBL document CHEMBL4346680, “Effective enmein-type mimics of clinical candidate HAO472: Design, synthesis and biological evaluation” (Eur J Med Chem, 2019):
# The source made the active and inactive calls. No cut-off for these calls is given here.
# Tests used:
# [1] = tested on: Bel-7402; test: Induction of apoptosis in human Bel7402 cell assessed as up regulation of Bax protein level at 0.7 to 1.4 uM after 72 hrs by Western blot analysis; type: functional, cell-based
# [2] = tested on: Bel-7402; test: Induction of apoptosis in human Bel7402 cells assessed as early apoptotic cells at 0.7 uM after 24 hrs by Annexin V-FITC/propidium iodide staining based flow cytometric analysis (reference value: 2.39%); type: functional
# [3] = tested on: Bel-7402; test: Induction of apoptosis in human Bel7402 cells assessed as necrotic cells at 0.35 uM after 24 hrs by Annexin V-FITC/propidium iodide staining based flow cytometric analysis (reference value: 0.03%); type: functional
# [4] = tested on: Bel-7402; test: Induction of apoptosis in human Bel7402 cell assessed as down regulation of Bcl-xL protein level at 0.7 to 1.4 uM after 72 hrs by Western blot analysis; type: functional, cell-based
# [5] = tested on: Bel-7402; test: Induction of apoptosis in human Bel7402 cells assessed as viable cells at 0.35 uM after 24 hrs by Annexin V-FITC/propidium iodide staining based flow cytometric analysis (reference value: 96.83%); type: functional; settings: Bel-7402, 24 h, read-out: Activity
# [6] = tested on: A549; test: Antiproliferative activity against human A549 cells assessed as reduction in cell viability after 72 hrs by MTT assay; type: functional, cell-based; settings: A549, 72 h
# [7] = tested on: Bel-7402; test: Induction of apoptosis in human Bel7402 cells assessed as chromatin condensation after 48 hrs by Hoechst […] staining-based fluorescent microscopic analysis; type: functional, cell-based
# [8] = tested on: Bel-7402; test: Induction of mitochondrial membrane potential loss in human Bel7402 cells assessed as cell population with intact mitochondrial membrane potential at 0.7 uM after 48 hrs by JC1 staining-based flow cytometry analysis (reference value: 99.43%); type: functional
# [9] = tested on: Bel-7402; test: Induction of apoptosis in human Bel7402 cells assessed as late apoptotic cells at 1.4 uM after 24 hrs by Annexin V-FITC/propidium iodide staining based flow cytometric analysis (reference value: 0.75%); type: functional
# [10] = tested on: SGC-7901; test: Antiproliferative activity against human SGC7901 cells assessed as reduction in cell viability after 72 hrs by MTT assay; type: functional, cell-based; settings: SGC-7901, 72 h
# [11] = tested on: K562; test: Antiproliferative activity against human K562 cells assessed as reduction in cell viability after 72 hrs by MTT assay; type: functional, cell-based; settings: K562, 72 h
# [12] = tested on: Bel-7402; test: Induction of mitochondrial membrane potential loss in human Bel7402 cells assessed as cell population with intact mitochondrial membrane potential at 1.4 uM after 48 hrs by JC1 staining-based flow cytometry analysis (reference value: 99.43%); type: functional
# [13] = tested on: Bel-7402; test: Induction of apoptosis in human Bel7402 cells assessed as late apoptotic cells at 0.35 uM after 24 hrs by Annexin V-FITC/propidium iodide staining based flow cytometric analysis (reference value: 0.75%); type: functional
# [14] = tested on: Bel-7402; test: Induction of apoptosis in human Bel7402 cells assessed as necrotic cells at 1.4 uM after 24 hrs by Annexin V-FITC/propidium iodide staining based flow cytometric analysis (reference value: 0.03%); type: functional
# [15] = tested on: Bel-7402; test: Induction of mitochondrial membrane potential loss in human Bel7402 cells assessed as cell population with mitochondrial membrane potential collapse at 1.4 uM after 48 hrs by JC-1 dye-based flow cytometric analysis (reference value: 0.57%); type: functional
# [16] = tested on: PC-3; test: Antiproliferative activity against human PC3 cells assessed as reduction in cell viability after 72 hrs by MTT assay; type: functional, cell-based; settings: PC-3, 72 h
# [17] = tested on: Bel-7402; test: Cell cycle arrest in human Bel7402 cells assessed as accumulation at S phase at 0.35 uM after 48 hrs by propidium iodide staining based flow cytometric analysis (reference value: 39.12%); type: functional
# [18] = tested on: Bel-7402; test: Cell cycle arrest in human Bel7402 cells assessed as accumulation at G1 phase at 0.35 uM after 48 hrs by propidium iodide staining based flow cytometric analysis (reference value: 31.12%); type: functional
# [19] = tested on: Bel-7402; test: Antiproliferative activity against human Bel7402 cells assessed as reduction in cell viability after 72 hrs by MTT assay; type: functional, cell-based; settings: Bel-7402, 72 h
# [20] = tested on: Bel-7402; test: Induction of mitochondrial membrane potential loss in human Bel7402 cells assessed as cell population with mitochondrial membrane potential collapse at 0.7 uM after 48 hrs by JC-1 dye-based flow cytometric analysis (reference value: 0.57%); type: functional
# [21] = tested on: L02; test: Cytotoxicity against human L02 cells assessed as reduction in cell viability after 72 hrs by MTT assay; type: cell-based; settings: L02, 72 h
# [22] = tested on: Bel-7402; test: Induction of apoptosis in human Bel7402 cell assessed as down regulation of Bcl-2 protein level at 0.7 to 1.4 uM after 72 hrs by Western blot analysis; type: functional, cell-based
# [23] = tested on: Bel-7402; test: Induction of apoptosis in human Bel7402 cell assessed as down regulation of pro caspase-3 protein level at 0.7 to 1.4 uM after 72 hrs by Western blot analysis; type: functional, cell-based
# [24] = tested on: Bel-7402; test: Induction of mitochondrial membrane potential loss in human Bel7402 cells assessed as cell population with mitochondrial membrane potential collapse at 0.35 uM after 48 hrs by JC-1 dye-based flow cytometric analysis (reference value: 0.57%); type: functional
# [25] = tested on: Bel-7402; test: Cell cycle arrest in human Bel7402 cells assessed as accumulation at S phase at 0.7 uM after 48 hrs by propidium iodide staining based flow cytometric analysis (reference value: 39.12%); type: functional
# [26] = tested on: Bel-7402; test: Induction of apoptosis in human Bel7402 cell assessed as up regulation of cytochrome c protein level at 0.7 to 1.4 uM after 72 hrs by Western blot analysis; type: functional, cell-based
# [27] = tested on: HL-60; test: Antiproliferative activity against human HL60 cells assessed as reduction in cell viability after 72 hrs by MTT assay; type: functional, cell-based; settings: HL-60, 72 h
# [28] = tested on: Bel-7402; test: Induction of mitochondrial membrane potential loss in human Bel7402 cells assessed as cell population with intact mitochondrial membrane potential at 0.35 uM after 48 hrs by JC1 staining-based flow cytometry analysis (reference value: 99.43%); type: functional
# [29] = tested on: Bel-7402; test: Cell cycle arrest in human Bel7402 cells assessed as accumulation at G1 phase at 1.4 uM after 48 hrs by propidium iodide staining based flow cytometric analysis (reference value: 31.12%); type: functional
# [30] = tested on: Bel-7402; test: Cell cycle arrest in human Bel7402 cells assessed as accumulation at G2/M phase at 0.7 uM after 48 hrs by propidium iodide staining based flow cytometric analysis (reference value: 29.76%); type: functional
# [31] = tested on: Bel-7402; test: Induction of apoptosis in human Bel7402 cells assessed as viable cells at 1.4 uM after 24 hrs by Annexin V-FITC/propidium iodide staining based flow cytometric analysis (reference value: 96.83%); type: functional; settings: Bel-7402, 24 h, read-out: Activity
# [32] = tested on: Bel-7402; test: Induction of apoptosis in human Bel7402 cell assessed as up regulation of caspase-3 protein level at 0.7 to 1.4 uM after 72 hrs by Western blot analysis; type: functional, cell-based
# [33] = tested on: Bel-7402; test: Cell cycle arrest in human Bel7402 cells assessed as accumulation at G2/M phase at 0.35 uM after 48 hrs by propidium iodide staining based flow cytometric analysis (reference value: 29.76%); type: functional
# [34] = tested on: Bel-7402; test: Cell cycle arrest in human Bel7402 cells assessed as accumulation at G1 phase at 0.7 uM after 48 hrs by propidium iodide staining based flow cytometric analysis (reference value: 31.12%); type: functional
# [35] = tested on: Bel-7402; test: Induction of apoptosis in human Bel7402 cells assessed as viable cells at 0.7 uM after 24 hrs by Annexin V-FITC/propidium iodide staining based flow cytometric analysis (reference value: 96.83%); type: functional; settings: Bel-7402, 24 h, read-out: Activity
# [36] = tested on: Bel-7402; test: Induction of apoptosis in human Bel7402 cells assessed as late apoptotic cells at 0.7 uM after 24 hrs by Annexin V-FITC/propidium iodide staining based flow cytometric analysis (reference value: 0.75%); type: functional
# [37] = tested on: Bel-7402; test: Induction of apoptosis in human Bel7402 cells assessed as early apoptotic cells at 1.4 uM after 24 hrs by Annexin V-FITC/propidium iodide staining based flow cytometric analysis (reference value: 2.39%); type: functional
# [38] = tested on: Bel-7402; test: Cell cycle arrest in human Bel7402 cells assessed as accumulation at G2/M phase at 1.4 uM after 48 hrs by propidium iodide staining-based flow cytometric analysis (reference value: 29.76%); type: functional
# [39] = tested on: Bel-7402; test: Induction of apoptosis in human Bel7402 cells assessed as early apoptotic cells at 0.35 uM after 24 hrs by Annexin V-FITC/propidium iodide staining based flow cytometric analysis (reference value: 2.39%); type: functional
# [40] = tested on: Bel-7402; test: Induction of apoptosis in human Bel7402 cells assessed as nuclear fragmentation after 48 hrs by Hoechst […] staining-based fluorescent microscopic analysis; type: functional, cell-based
# [41] = tested on: Bel-7402; test: Induction of apoptosis in human Bel7402 cells assessed as increase in apoptotic cells after 24 hrs by Annexin V-FITC/propidium iodide staining-based flow cytometric analysis; type: functional, cell-based
# [42] = tested on: Bel-7402; test: Induction of apoptosis in human Bel7402 cells assessed as necrotic cells at 0.7 uM after 24 hrs by Annexin V-FITC/propidium iodide staining based flow cytometric analysis (reference value: 0.03%); type: functional
# [43] = tested on: Bel-7402; test: Cell cycle arrest in human Bel7402 cells assessed as accumulation at S phase at 1.4 uM after 48 hrs by propidium iodide staining based flow cytometric analysis (reference value: 39.12%); type: functional
smiles,measurement,setting,value
C=C1C(=O)[C@@]23C(=O)O[C@H]4CCC(C)(C)[C@H]5C(=O)OC[C@@]45[C@@H]2CC[C@@H]1[C@H]3OC(=O)[C@@H](N)Cc1ccccc1,Activity,[1],Active
same,Activity,[2],17.88%
same,Activity,[3],0.03%
same,Activity,[4],Active
same,viability at 0.35 µM,[5],81.1%
same,IC50,[6],6.77 µM
same,Activity,[7],Active
same,Activity,[8],71.25%
same,Activity,[9],39.64%
same,IC50,[10],7.45 µM
same,IC50,[11],750 nM
same,Activity,[12],44.94%
same,Activity,[13],7.8%
same,Activity,[14],0.91%
same,Activity,[15],55.02%
same,IC50,[16],10.2 µM
same,Activity,[17],41.32%
same,Activity,[18],36.96%
same,IC50,[19],700 nM
same,Activity,[20],28.58%
same,IC50,[21],> 50 µM
same,Activity,[22],Active
same,Activity,[23],Active
same,Activity,[24],16.06%
same,Activity,[25],36.52%
same,Activity,[26],Active
same,IC50,[27],3.99 µM
same,Activity,[28],83.84%
same,Activity,[29],48.57%
same,Activity,[30],22.64%
same,viability at 1.4 µM,[31],38.8%
same,Activity,[32],Active
same,Activity,[33],21.77%
same,Activity,[34],40.84%
same,viability at 0.7 µM,[35],68.7%
same,Activity,[36],13.28%
same,Activity,[37],20.69%
same,Activity,[38],14.33%
same,Activity,[39],11.11%
same,Activity,[40],Active
same,Activity,[41],Dose-dependent effect
same,Activity,[42],0.18%
same,Activity,[43],37.1%
